From ChEMBL document CHEMBL1156794, “Synthesis and antimicrobial evaluation of amphiphilic neamine derivatives” (J Med Chem, 2010)
In brackets after ≈: the same amount, converted by molar mass.

Assays:
[1] = system: Pseudomonas aeruginosa; assay: Antibacterial activity against MexAB expressing Pseudomonas aeruginosa PA21 after 24 hrs by geometric microdilution method; type: functional; settings: PA21, 24 h
[2] = system: Pseudomonas aeruginosa; assay: Antibacterial activity against MexCD expressing Pseudomonas aeruginosa PA01 after 24 hrs by geometric microdilution method; type: functional; settings: PA01, 24 h
[3] = system: Pseudomonas aeruginosa; assay: Antibacterial activity against MexEF expressing Pseudomonas aeruginosa PA03 after 24 hrs by geometric microdilution method; type: functional; settings: PA03, 24 h
[4] = system: Pseudomonas aeruginosa; assay: Antibacterial activity against TriABC expressing MexAB, MexCD, MexEF, MexXY deleted Pseudomonas aeruginosa PA405 after 24 hrs by geometric microdilution method; type: functional; settings: PA405, 24 h
[5] = system: Escherichia coli; assay: Antibacterial activity against AAC6'-2b expressing Escherichia coli PAZ505H8101 after 24 hrs by geometric microdilution method; type: functional; settings: PAZ505H8101, 24 h
[6] = system: Escherichia coli; assay: Antibacterial activity against ANT2'-2a expressing Escherichia coli L58058.1 after 24 hrs by geometric microdilution method; type: functional; settings: L58058.1, 24 h
[7] = system: Citrobacter amalonaticus; assay: Antibacterial activity against R-methylase expressing Citrobacter amalonaticus 06AB0010 after 24 hrs by geometric microdilution method; type: functional; settings: 06AB0010, 24 h
[8] = system: Pseudomonas aeruginosa; assay: Antibacterial activity against MexXY expressing Pseudomonas aeruginosa PA22 after 24 hrs by geometric microdilution method; type: functional; settings: PA22, 24 h
[9] = system: Escherichia coli; assay: microbe, parasite or virus in culture; settings: ATCC 25922, 24 h
Description: Antibacterial activity against Escherichia coli ATCC 25922 after 24 hrs by geometric microdilution method

[10] = system: Pseudomonas aeruginosa; assay: Antibacterial activity against AAC6'-2a expressing Pseudomonas aeruginosa F03 after 24 hrs by geometric microdilution method; type: functional; settings: F03, 24 h
[11] = system: Acinetobacter lwoffii; assay: Antibacterial activity against […] expressing Acinetobacter lwoffii AI.88-483 after 24 hrs by geometric microdilution method; type: functional; settings: AI.88-483, 24 h
[12] = system: Klebsiella pneumoniae; assay: Antibacterial activity against Klebsiella pneumoniae ATCC 700603 after 24 hrs by geometric microdilution method; type: functional; settings: ATCC 700603, 24 h
[13] = system: Escherichia coli; assay: Antibacterial activity against R-methylase expressing Escherichia coli 06AB003 after 24 hrs by geometric microdilution method; type: functional; settings: 06AB003, 24 h
[14] = system: Klebsiella aerogenes; assay: Antibacterial activity against R-methylase expressing Enterobacter aerogenes 06AB008 after 24 hrs by geometric microdilution method; type: functional; settings: 06AB008, 24 h
[15] = system: Pseudomonas aeruginosa; assay: Antibacterial activity against MexXY expressing Pseudomonas aeruginosa PT629 after 24 hrs by geometric microdilution method; type: functional; settings: PT629, 24 h
[16] = system: Pseudomonas aeruginosa; assay: Antibacterial activity against Pseudomonas aeruginosa ATCC 27853 after 24 hrs by geometric microdilution method; type: functional; settings: ATCC 27853, 24 h
[17] = system: Pseudomonas aeruginosa; assay: Antibacterial activity against Pseudomonas aeruginosa PAO1 after 24 hrs by geometric microdilution method; type: functional; settings: PAO1, 24 h
[18] = system: Pseudomonas aeruginosa; assay: Antibacterial activity against MexAB, MexCD, MexEF, MexXY, TriABC deleted Pseudomonas aeruginosa PA406 after 24 hrs by geometric microdilution method; type: functional; settings: PA406, 24 h
[19] = system: Acinetobacter lwoffii; assay: microbe, parasite or virus in culture; settings: ATCC 17925, 24 h
Description: Antibacterial activity against Acinetobacter lwoffii ATCC 17925 after 24 hrs by geometric microdilution method

[20] = system: Pseudomonas aeruginosa; assay: Inhibition of protein synthesis in Pseudomonas aeruginosa ATCC 27853 assessed as decrease in incorporation of L-[4,5-3H]leucine at 10 times MIC by liquid scintillation counter relative to control; type: functional
[21] = target: Nucleic Acid; assay: Binding affinity to bacterial rRNA A site at 200 uM by isothermal titration calorimetry; type: nucleic-acid assay
[22] = system: Pseudomonas aeruginosa; assay: Inhibition of protein synthesis in Pseudomonas aeruginosa ATCC 27853 assessed as decrease in incorporation of L-[4,5-3H]leucine at 5 times MIC by liquid scintillation counter relative to control; type: functional
[23] = system: Staphylococcus aureus; assay: Antibacterial activity against Staphylococcus aureus ATCC 25923 after 24 hrs by geometric microdilution method; type: functional; settings: ATCC 25923, 24 h
[24] = system: Staphylococcus aureus; assay: Antibacterial activity against aminoglycoside-3'-O-phosphoryltransferase expressing Staphylococcus aureus after 24 hrs by geometric microdilution method; type: functional
[25] = system: Staphylococcus aureus; assay: Antibacterial activity against aminoglycoside-6'-N-acetyltransferase/2''-O-phosphoryltransferase expressing Staphylococcus aureus after 24 hrs by geometric microdilution method; type: functional
[26] = system: Staphylococcus aureus; assay: Antibacterial activity against aminoglycoside-4'-O-phosphoryltransferase expressing Staphylococcus aureus after 24 hrs by geometric microdilution method; type: functional
[27] = system: Staphylococcus aureus; assay: Antibacterial activity against methicillin-resistant Staphylococcus aureus ATCC 33592 clinical isolate after 24 hrs by geometric microdilution method; type: functional; settings: ATCC 33592, 24 h
[28] = system: Staphylococcus aureus; assay: Antibacterial activity against NorA pump expressing Staphylococcus aureus after 24 hrs by geometric microdilution method; type: functional
[29] = system: Pseudomonas aeruginosa; assay: Inhibition of protein synthesis in Pseudomonas aeruginosa ATCC 27853 assessed as decrease in incorporation of L-[4,5-3H]leucine at MIC by liquid scintillation counter relative to control; type: functional
[30] = system: Staphylococcus aureus; assay: Antibacterial activity against vancomycin-resistant Staphylococcus aureus VRS-2 after 24 hrs by geometric microdilution method; type: functional; settings: VRS-2, 24 h
[31] = system: Staphylococcus aureus; assay: Antibacterial activity against MsrA pump expressing Staphylococcus aureus after 24 hrs by geometric microdilution method; type: functional

Row | SMILES | MIC [1] [µg/mL] | MIC [2] [µg/mL] | MIC [3] [µg/mL] | MIC [4] [µg/mL] | MIC [5] [µg/mL] | MIC [6] [µg/mL] | MIC [7] [µg/mL] | MIC [8] [µg/mL] | MIC [9] [µg/mL] | MIC [10] [µg/mL] | MIC [11] [µg/mL] | MIC [12] [µg/mL] | MIC [13] [µg/mL] | MIC [14] [µg/mL] | MIC [15] [µg/mL] | MIC [16] [µg/mL] | MIC [17] [µg/mL] | MIC [18] [µg/mL] | MIC [19] [µg/mL] | inhibition (INH) [20] [%] | also measured
1 | NC[C@H]1O[C@H](O[C@H]2[C@H](O)[C@@H](O[C@H]3O[C@H](CO)[C@@H](O)[C@H](N)[C@H]3O)[C@H](N)C[C@@H]2N)[C@H](N)C[C@@H]1O [TOBRAMYCIN] | 0.5 (≈ 1.07 µM) | 0.5 (≈ 1.07 µM) | < 0.25 | < 0.25 | 32 (≈ 68.4 µM) | 64 (≈ 137 µM) | > 128 | 1 (≈ 2.14 µM) | 0.5 (≈ 1.07 µM) | 128 (≈ 274 µM) | 1 (≈ 2.14 µM) | 4 (≈ 8.56 µM) | > 128 | > 128 | 1 (≈ 2.14 µM) | 0.5 (≈ 1.07 µM) | 0.5 (≈ 1.07 µM) | < 0.25 | 0.5 (≈ 1.07 µM) | – | –
2 | NC[C@H]1O[C@H](O[C@H]2[C@H](O)[C@@H](OCc3ccc4ccccc4c3)[C@H](N)C[C@@H]2N)[C@H](N)[C@@H](OCc2ccc3ccccc3c2)[C@@H]1OCc1ccc2ccccc2c1 | 4 (≈ 5.38 µM) | 4 (≈ 5.38 µM) | 4 (≈ 5.38 µM) | 4 (≈ 5.38 µM) | 4 (≈ 5.38 µM) | 4 (≈ 5.38 µM) | 4 (≈ 5.38 µM) | 4 (≈ 5.38 µM) | – | 8 (≈ 10.8 µM) | 32 (≈ 43.1 µM) | 16 (≈ 21.5 µM) | 4 (≈ 5.38 µM) | 4 (≈ 5.38 µM) | 4 (≈ 5.38 µM) | 8 (≈ 10.8 µM) | 8 (≈ 10.8 µM) | 4 (≈ 5.38 µM) | – | 60 | Kd [21]: 10 µM
3 | NCC[C@H](O)C(=O)N[C@@H]1C[C@H](N)[C@@H](O[C@H]2O[C@H](CN)[C@@H](O)[C@H](O)[C@H]2O)[C@H](O)[C@H]1O[C@H]1O[C@H](CO)[C@@H](O)[C@H](N)[C@H]1O [AMIKACIN] | 2 (≈ 3.42 µM) | 2 (≈ 3.42 µM) | 2 (≈ 3.42 µM) | 0.5 (≈ 0.854 µM) | 32 (≈ 54.6 µM) | 2 (≈ 3.42 µM) | > 128 | 8 (≈ 13.7 µM) | 4 (≈ 6.83 µM) | 4 (≈ 6.83 µM) | > 128 | 0.5 (≈ 0.854 µM) | > 128 | > 128 | 8 (≈ 13.7 µM) | 2 (≈ 3.42 µM) | 2 (≈ 3.42 µM) | 1 (≈ 1.71 µM) | 0.5 (≈ 0.854 µM) | – | –
4 | C[C@H]1[C@H](NC(=O)/C(=N\OC(C)(C)C(=O)O)c2csc(N)n2)C(=O)N1S(=O)(=O)O [AZTREONAM] | – | – | – | – | – | – | – | – | – | – | – | – | – | – | – | – | – | – | – | 95 | inhibition (INH) [22]: 30%
5 | NC[C@@H]1O[C@H](O[C@H]2[C@@H](O)[C@H](O[C@@H]3[C@@H](O)[C@H](N)C[C@H](N)[C@H]3O[C@H]3O[C@H](CN)[C@@H](O)[C@H](O)[C@H]3N)O[C@@H]2CO)[C@H](N)[C@@H](O)[C@@H]1O [FRAMYCETIN] | 4 (≈ 6.51 µM) | 8 (≈ 13 µM) | 4 (≈ 6.51 µM) | 2 (≈ 3.25 µM) | 4 (≈ 6.51 µM) | 32 (≈ 52.1 µM) | – | 32 (≈ 52.1 µM) | 2 (≈ 3.25 µM) | 128 (≈ 208 µM) | > 128 | 16 (≈ 26 µM) | – | – | 32 (≈ 52.1 µM) | 64 (≈ 104 µM) | 4 (≈ 6.51 µM) | 4 (≈ 6.51 µM) | 0.5 (≈ 0.813 µM) | 40 | MIC [23]: 2 µg/mL (≈ 3.25 µM); MIC [24]: > 128 µg/mL; MIC [25]: 1 µg/mL (≈ 1.63 µM); MIC [26]: 32 µg/mL (≈ 52.1 µM); MIC [27]: > 128 µg/mL; MIC [28]: 1 µg/mL (≈ 1.63 µM); inhibition (INH) [29]: 40%; MIC [30]: 128 µg/mL (≈ 208 µM); Kd [21]: 1.55 µM; MIC [31]: 2 µg/mL (≈ 3.25 µM)
